Assay results published in patent publication US12357695B2, “Peptides and nanoparticles for intracellular delivery of molecules” (AADIGEN, LLC, priority 2019, dated 2025).
Square brackets hold non-standard residues; d marks the D form. Ends that are not written are not given here. Stearyl = stearyl group covalently linked to the N-terminus; Aun = NCCCCCCCCCCC(=O)O; βAla = NCCC(=O)O

Experiments:
293T cells = assay: Cellular delivery of pGL4 plasmid DNA expressing Luciferase, luciferase expression at 72 hrs; type: cell-based; details: for reduction of efficiency / luciferase expression in the presence of serum: complexes incubated 3 hrs in 25% serum prior transfection; for reduction of efficiency / luciferase expression in the presence of serum / reduction of efficiency / luciferase expression in heparan sulfate: pGL4 plasmid; for reduction of efficiency / luciferase expression in heparan sulfate: complexes incubated 3 hrs with heparan sulfate prior transfection; for reduction of ADGN-100 efficiency by modification / luciferase expression: 0.15 μg pGL4 plasmid; for reduction of ADGN-100 efficiency by modification: absence of serum or heparan sulfate
Protocol: FIGS. 2A-2C show luciferase expression in 293T cells treated with ADGN-peptide/pGL4 plasmid DNA complexes. 293T cells cultured in 48 well plates were transfected with ADGN-peptide nanoparticles. ADGN-100, ADGN-106, ADGN-100RI, ADGN-106RI, ADGN-100 Stearyl, ADGN-Hydro1, ADGN-Hydro2, ADGN-Hydro3, ADGN-Hydro4, ADGN-Hydro5, and ADGN-Hydro6 containing 0.17 μg pGL4 plasmid DNA were formed in sterile water, diluted in sterile water containing 5% Sucrose. ADGN-peptide nanoparticles were evaluated prior (FIG. 2A) and after filtration with 0.45 μm PES filters (FIG. 2B). FIG. 2C impact of peGylated ADGN-100 on the transfection efficiency. pGL4 luc plasmid (0.15 μg) were associated to ADGN-100 solution containing 5 to 50% of ADGN-100-PEG or to ADGN-100PEG. ADGN/pGL4 plasmid DNA complexes were incubated for 3 hrs in the presence of either 25% serum or heparan sulfate prior transfection. Luciferase expression was monitored 72 hours post transfection and results were reported as RLU (luminescence):mg of protein.
Complex formation with plasmid DNA. The following protocols were used for the transfection of 2-5 106 Cells or Cells at confluency of about 70-80% cultured in 24 well plates. ADGN peptide/plasmid DNA pGL4 particles were prepared at a 20:1 molar ratio of ADGN-Peptide/pGL4. using (0.2 μg). PGL4 plasmid (0.15 μg) was diluted in 20 μl of sterile water (GIBCO) at room temperature. 10 μl Final Peptide Solution was added to obtain a total volume of 20 μl. The volume was adjusted to 50 μl with sterile water and was mixed gently with vortex 1 min low speed and incubated 30 min at room temperature. Then the volume was made up to 100 μl by adding sterile water containing 5% sucrose, and the solution was mixed gently with vortex 1 min low speed and incubate 5 min at 37° C. and then was proceeded to cell transfection.
Transfection protocol. Protocol is reported for 24 well plate format. Cells were cultured in Dulbecco's Modified Eagle's Medium (DMEM), supplemented with 2 mM glutamine, 1% antibiotics (streptomycin 10,000 μg/mL, penicillin, 10,000 IU/mL) and 10% (w/v) foetal calf serum (FCS), at 37° C. in a humidified atmosphere containing 5% CO2. 24 well plates seeded with 150,000 cells the day prior to transfection were grown to 50-60% confluence and set up to be at about 70% confluences at the time of transfection. Before transfection, cells were washed twice with DMEM. Cells were then overlaid with 0.1 ml of ADGN-peptide/cargo complex solution containing 0.25 μg mRNA, 0.15 μg plasmid DNA or 10-25 nM siRNA, mixed gently, and incubated for 10 min at 37° C. 0.2 mL of fresh DMEM, were added and cells were incubated for 20 min at 37° C. 1 mL of complete DMEM containing 15% FCS were then added in order to reach a final FCS concentration of 10%, without removing the overlay of ADGN-peptide/cargo complexes. Cells were returned to the incubator (37° C., 5% CO2) and 72 hrs post transfection.
ADGN-peptides were evaluated for cellular delivery of pGL4 plasmid DNA expressing Luciferase in 293T cells. Luc pGL4 plasmid (0.15 μg) in sterile water (GIBCO) were mixed with ADGN-100, ADGN-100RI, ADGN-106, ADGN-106RI, ADGN-100 Stearyl, ADGN-100Hydro1, ADGN-100Hydro2, ADGN-100Hydro4, ADGN-100Hydro3, ADGN-100Hydro5 and ADGN-100Hydro6. ADGN-peptide/mRNA complexes were filtered with 0.45 μm PES filter. In order to evaluate the stability of the ADGN/pGL4 plasmid complexes in high serum and cell culture conditions, the complexes were incubated for 3 hrs in the presence of either 25% serum or heparan sulfate prior transfection, then 293T cells were transfected and Luciferase expression was monitored at 72 hrs.

mice = assay: In vivo delivery of pGL4 plasmid DNA, intravenous administration, bioluminescence imaging; details: 5 μg pGL4 plasmid; for increase of luciferase expression / efficiency relative to ADGN-100: all / different tissues
Protocol: FIGS. 6A-6C show the potency of ADGN-peptide variants for in vivo delivery of Luciferase expressing plasmid pGL4 via intravenous administration in mice. ADGN-peptide/pGL4 particles containing 5 μg plasmid DNA were formed in sterile water, and then diluted in 5% sucrose. Mice received IV injection of 100 μl ADGN-peptide/plasmid complexes. pGL4 Luciferase expression was monitored by bioluminescence imaging after 12 h, 24h, 48h and 72h. […] Results were then expressed as values relative to day 0.
Stable ADGN-peptides/pGL4.11 DNA were evaluated for in vivo delivery of Luciferase mRNA via intravenous and intramuscular administrations. Animals were treated with single dose of pGL4.11 plasmid DNA of 5 μg. via IV and 2.5 μg via intramuscular administration.
pGL4.11 DNA plasmid (5 μg) in sterile water (GIBCO) were mixed with ADGN peptide (sterile water), volume for each sample was adjusted to 100 μl, with sterile water containing 5% Sucrose. Samples were mixed gently with vortex for 1 minute at low speed and incubated for 30 min at room temperature. Samples were filtered on 0.45 μm PES filters prior administration. For IV administration Mice received 100 μl IV injection of either ADGN-106/pGL4, ADGN-100/pGL4, ADGN-100RI/pGL4, ADGN-100-stearyl/PGL4, ADGN-100Hydro1/PGL4, ADGN-100Hydro2/PGL4, ADGN100 Hydro6/PGL4 or ADGN/PGL4 complexes containing 10% or 20% of ADGN-100PEG (3 animals per group). As control, mice from group 3 (2 animals per group) received IV injection of 100 μl of naked pGL4 plasmids (5 μg).
Luciferase expression was monitored by bioluminescence. Bioluminescence imaging was performed after 12, 24, 48 and 72 hrs. Mice received an i.p. injection of 150 μg/g luciferin for noninvasive bioluminescence imaging (IVIS Kinetic; PerkinElmer, Waltham, MA, USA).

Substance | reduction of efficiency / luciferase expression in the presence of serum (293T cells) | reduction of efficiency / luciferase expression in heparan sulfate (293T cells) | luciferase expression and tissues (mice) | reduction of ADGN-100 efficiency by modification (293T cells) | increase of luciferase expression / efficiency relative to ADGN-100 (mice) | luciferase expression (293T cells)
Ac-GYVS-(G)4-KWRSALWRWRLWRVRSWSR-NH2 (Ac-GYVSGGGGKWRSALWRWRLWRVRSWSR-NH2) [ADGN-100 hydro-2] | do not significantly improved transfection | do not significantly improved transfection | negligible luciferase expression | – | – | –
Ac-GYVS-Aun-KWRSALWRWRLWRVRSWSR-NH2 (Ac-GYVS[Aun]KWRSALWRWRLWRVRSWSR-NH2; SMILES CC(=O)NCC(=O)N[C@@H](Cc1ccc(O)cc1)C(=O)N[C@H](C(=O)N[C@@H](CO)C(=O)NCCCCCCCCCCC(=O)N[C@@H](CCCCN)C(=O)N[C@@H](Cc1c[nH]c2ccccc12)C(=O)N[C@@H](CCCNC(=N)N)C(=O)N[C@@H](CO)C(=O)N[C@@H](C)C(=O)N[C@@H](CC(C)C)C(=O)N[C@@H](Cc1c[nH]c2ccccc12)C(=O)N[C@@H](CCCNC(=N)N)C(=O)N[C@@H](Cc1c[nH]c2ccccc12)C(=O)N[C@@H](CCCNC(=N)N)C(=O)N[C@@H](CC(C)C)C(=O)N[C@@H](Cc1c[nH]c2ccccc12)C(=O)N[C@@H](CCCNC(=N)N)C(=O)N[C@H](C(=O)N[C@@H](CCCNC(=N)N)C(=O)N[C@@H](CO)C(=O)N[C@@H](Cc1c[nH]c2ccccc12)C(=O)N[C@@H](CO)C(=O)N[C@@H](CCCNC(=N)N)C(N)=O)C(C)C)C(C)C) [ADGN-100 hydro-6] | – | – | mainly observed in the liver and at lower level in the lung and the kidney | do not affected | 3.4 fold | –
Stearyl-βA-KWRSALWRWRLWRVRSWSR-NH2 (Stearyl-[βAla]KWRSALWRWRLWRVRSWSR-NH2; not fully specified; printed as Stearyl-βA-KWRSALWRWRLWRVRSWSR-NH2) [ADGN-100 Stearyl] | – | – | mainly observed in the liver and at lower level in the lung and the kidney | do not affected | 2.7 fold | –
akwllrwlsrwlrwlarwlr ([dA][dK][dW][dL][dL][dR][dW][dL][dS][dR][dW][dL][dR][dW][dL][dA][dR][dW][dL][dR]; also: retro-inverso) [ADGN-106-RI] | – | – | – | – | – | poor luciferase expression
rswsrvrwlrwrwgasrwk ([dR][dS][dW][dS][dR][dV][dR][dW][dL][dR][dW][dR][dW]G[dA][dS][dR][dW][dK]; also: retro-inverso) [ADGN-100-RI] | 25% | less than 10% | mainly observed in the liver and at lower level in the lung and the kidney | do not affected | 4 fold | –
βAKWRSAGWRWRLW RVRSWSR (AKWRSAGWRWRLWRVRSWSR; N-terminal beta-alanine; VARIANT 1 beta-A) [ADGN-100] | 90% | 50% | mainly observed in the liver and at lower level in the lung and the kidney | – | – | high level of luciferase expression
βALWRALWRLWRSLWRLLWKA ([βAla]LWRALWRLWRSLWRLLWKA) [ADGN-106] | – | – | no or minimal expression | – | – | poor luciferase expression
